Among the data in paper PMC11444201, “A Novel Tetrahydroacridine Derivative with Potent Acetylcholinesterase Inhibitory Properties and Dissociative Capability against Aβ42 Fibrils Confirmed by In Vitro Studies” (International Journal of Molecular Sciences, 2024) are IC50 and DC50 values, retold here.

Assay [1] addresses acetylcholinesterase (AChE) (Electrophorus electricus, UniProt O42275). Nature of the assay: modified Ellman spectrophotometric assay with isolated enzyme. The assay is classed as biochemical. On the technique in general: In Ellman's method for cholinesterases, released thiocholine reacts with DTNB.
Assay [2] concerns the target T1, amyloid β 1-42 (Aβ42) fibrils (Homo sapiens, UniProt P05067).
T1 construct: gene APP; amyloid β 1-42 peptide, preformed fibrils
Briefly: thioflavin T fluorescence fibril dissociation assay (DC50), supported by AFM. The assay is classed as biochemical.

Counter-ions that a name gives are not always drawn.

Chain of acetylcholinesterase (AChE) (O42275 24-633): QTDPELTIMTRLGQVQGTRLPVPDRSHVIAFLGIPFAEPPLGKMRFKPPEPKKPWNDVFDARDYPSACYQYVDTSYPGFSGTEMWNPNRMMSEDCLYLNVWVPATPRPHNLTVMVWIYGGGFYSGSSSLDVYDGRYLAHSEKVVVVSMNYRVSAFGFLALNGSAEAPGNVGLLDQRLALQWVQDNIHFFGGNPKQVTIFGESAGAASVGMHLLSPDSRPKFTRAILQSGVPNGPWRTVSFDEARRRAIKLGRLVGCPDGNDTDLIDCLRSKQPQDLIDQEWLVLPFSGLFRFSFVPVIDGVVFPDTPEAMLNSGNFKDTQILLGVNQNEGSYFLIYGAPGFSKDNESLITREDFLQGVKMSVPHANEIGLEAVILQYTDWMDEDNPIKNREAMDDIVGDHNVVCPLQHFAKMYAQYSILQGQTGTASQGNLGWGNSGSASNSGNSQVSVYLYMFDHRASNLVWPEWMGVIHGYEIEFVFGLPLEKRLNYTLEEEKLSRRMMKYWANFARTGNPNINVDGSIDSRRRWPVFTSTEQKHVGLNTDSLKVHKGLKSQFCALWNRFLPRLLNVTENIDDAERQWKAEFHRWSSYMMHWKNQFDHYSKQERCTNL
T1 sequence (P05067 672-713): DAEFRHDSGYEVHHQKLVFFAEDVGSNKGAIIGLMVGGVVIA

The term IC50 denotes the midpoint of a concentration-inhibition curve. Read a high IC50 as weaker potency. In assay [1], `Clc1cc2c3c(c4c(nc3c1)CCCC4)NCCN2` [CHDA, 6-chloro-1,2,3,4,9,10,11,12-octahydro-[1,4]-diazepine-[5,6,7-kl]-acridine Monohydrochloride] yielded an IC50 of 18.5 ± 5.68 nM. In addition, the DC50 in assay [2] was determined as 70800 nM.
